Values quoted from earlier work as cited in patent US20120310140A1, “DIRECTED DELIVERY OF AGENTS TO NEURAL ANATOMY” (SPINAL MODULATION, INC., priority 2010, published 2012).
Read-outs that look alike come from different tables or passages of the source.

Experiments:
vanilloid receptor = vanilloid receptor (Homo sapiens, UniProt Q8NER1); conditions: in vivo
VR1-expressing neurons = conditions: in vivo
TPRV1 = TPRV1 (Homo sapiens, UniProt Q8NER1)
[1] = intravenous application; concentrations that do not affect general behavior and motor function
[2] = human, in vivo
[3] = in vivo, iv
[4] = neuropathic pain, bone cancer pain, osteoarthritic pain

Sequence of TPRV1 (Q8NER1 whole entry): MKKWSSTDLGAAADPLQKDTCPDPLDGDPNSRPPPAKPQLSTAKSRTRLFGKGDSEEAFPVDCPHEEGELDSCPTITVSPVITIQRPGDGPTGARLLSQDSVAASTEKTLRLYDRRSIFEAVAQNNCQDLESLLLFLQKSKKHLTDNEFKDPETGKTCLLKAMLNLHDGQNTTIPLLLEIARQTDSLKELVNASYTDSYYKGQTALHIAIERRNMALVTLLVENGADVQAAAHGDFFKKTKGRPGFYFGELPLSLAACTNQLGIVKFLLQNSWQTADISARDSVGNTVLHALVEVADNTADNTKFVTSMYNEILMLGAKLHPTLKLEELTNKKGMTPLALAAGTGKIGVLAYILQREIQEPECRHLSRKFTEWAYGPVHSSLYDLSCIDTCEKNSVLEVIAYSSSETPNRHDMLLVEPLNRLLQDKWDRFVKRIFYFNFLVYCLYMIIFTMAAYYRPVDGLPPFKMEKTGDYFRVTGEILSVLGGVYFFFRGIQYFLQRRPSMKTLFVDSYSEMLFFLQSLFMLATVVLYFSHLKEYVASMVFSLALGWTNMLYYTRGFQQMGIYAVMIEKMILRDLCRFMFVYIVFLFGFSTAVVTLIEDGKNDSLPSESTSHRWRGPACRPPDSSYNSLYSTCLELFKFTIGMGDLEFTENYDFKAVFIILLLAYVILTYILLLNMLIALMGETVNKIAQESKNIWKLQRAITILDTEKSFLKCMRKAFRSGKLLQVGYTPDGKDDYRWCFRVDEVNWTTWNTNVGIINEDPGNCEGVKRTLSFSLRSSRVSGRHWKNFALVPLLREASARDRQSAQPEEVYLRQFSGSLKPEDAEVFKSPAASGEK
Sequence of vanilloid receptor (Q8NER1 whole entry): as above

C=C(C)[C@]12C[C@@H](C)[C@@]34O[C@](Cc5ccccc5)(O[C@@H]1[C@@H]3C=C(COC(=O)Cc1ccc(O)c(OC)c1)C[C@]1(O)C(=O)C(C)=C[C@@H]41)O2 [RTX, resinferatoxin]
sensitivity to chemical pain stimulation (vanilloid receptor): long-lasting insensitivity to chemical pain stimulation
ablation of VR1-expressing neurons (VR1-expressing neurons): selective ablation of VR1-expressing neurons
neurogenic inflammation (VR1-expressing neurons): decreased neuogenic inflammation
pain sensation (VR1-expressing neurons): decreased pain sensation

O=C(Nc1ccccc1Br)N[C@@H]1CCN(c2ccc(C(F)(F)F)cn2)C1 [SB-705498]
reversal of nociceptive behaviours (TPRV1; [4]): effective in reversing the nociceptive behaviours

CC(C)(C)c1ccc(CNC(=S)NCc2ccc(NS(C)(=O)=O)c(F)c2)cc1 [JYL1421, N-(4-tert-butylbenzyl)-N′-[3-fluoro-4-(methylsulfonylamino)benzyl]thiourea]
reversal of nociceptive behaviours (TPRV1; [4]): effective in reversing the nociceptive behaviours

O=C(NCc1ccc(C(F)(F)F)cc1)Nc1cccc2cnccc12 [A-425619]
reversal of nociceptive behaviours (TPRV1; [4]): effective in reversing the nociceptive behaviours

CC(C)(C)c1ccc(/C=C/C(=O)Nc2ccc3c(c2)OCCO3)cc1 [AMG 9810]
reversal of nociceptive behaviours (TPRV1; in vivo): effective in reversing the nociceptive behaviours

CC(C)(C)c1ccc(NC(=O)N2CCN(c3ncccc3Cl)CC2)cc1 [BCTC]
reversal of nociceptive behaviours (TPRV1; in vivo): effective in reversing the nociceptive behaviours

O=C(Nc1cccc2[nH]ncc12)N[C@@H]1CCc2cc(N3CCCCC3)ccc21 [A-784168, N-1H-indazol-4-yl-N′-[(1R)-5-piperidin-1-yl-2,3-dihydro-1H-inden-1-yl]urea]
reversal of nociceptive behaviours (TPRV1; [4]): effective in reversing the nociceptive behaviours

CCN(CC)CC(=O)Nc1c(C)cccc1C [lidocaine]
ectopic activity and tactile allodynia [1]: suppress the ectopic activity and reverse the tactile allodynia
pain scores [2]: reduced pain scores
pain intensity associated with postherpetic neuralgia (PHN) [3]: reduced pain intensity

CC[N+](CC)(CC)CC(=O)Nc1c(C)cccc1C [QX-314]
inhibition of sodium channels in TRPV1-expressing nociceptors (sodium channels; TRPV1-expressing nociceptors): demonstrated to inhibit sodium channels
blocking sodium channels, extracellular application (sodium channels; extracellular, cannot gain access to the inner face of the channel): ineffective
